Experimental data from patent US20240091209A1, “COMPOSITIONS AND METHODS FOR TREATMENT OF HIDRADENITIS SUPPURATIVA” (SUZHOU KINTOR PHARMACEUTICALS, INC., priority 2021, published 2024).
“Also recorded” adds a separate entry of the source.

Experiments:
[1] = system: hidradenitis suppurativa (HS); test: Study of Proxalutamide for the treatment of HS (Hurley Stage after 7 days); format: in vivo, human
Description: (§1) Overview: Four subjects, 2 males and 2 females, were recruited to the Proxalutamide HS study. At baseline (day 0) all subjects were diagnosed by a dermatologist with HS Hurley Stage 3. All subjects presented HS in the axilla region. Two subjects (1 male and 1 female) were treated for 7 days with Proxalutamide monotherapy 200 mg daily and two subjects were treated for 7 days with Proxalutamide placebo monotherapy 200 mg daily
Efficacy Endpoint: Hurley Stage following 7 days of treatment.
Formula: Proxalutamie 200 mg q.d.
(§2) Results: Following 7 days of treatment with Proxalutamide 200 mg q.d., all four subjects returned to the clinic to be assessed by a dermatologist. On day 7 both subjects treated with Proxalutamie were diagnosed by a dermatologist with HS Hurley Stage 1. […] On day 7 both subjects treated with Proxalutamie placebo were diagnosed by a dermatologist with HS Hurley Stage 3.

androgen receptor (AR) = biological target: T1, androgen receptor (AR) (Homo sapiens, UniProt P10275); details: clinical evidence, no details given; cited from earlier work
T1 sequence (P10275 1-920): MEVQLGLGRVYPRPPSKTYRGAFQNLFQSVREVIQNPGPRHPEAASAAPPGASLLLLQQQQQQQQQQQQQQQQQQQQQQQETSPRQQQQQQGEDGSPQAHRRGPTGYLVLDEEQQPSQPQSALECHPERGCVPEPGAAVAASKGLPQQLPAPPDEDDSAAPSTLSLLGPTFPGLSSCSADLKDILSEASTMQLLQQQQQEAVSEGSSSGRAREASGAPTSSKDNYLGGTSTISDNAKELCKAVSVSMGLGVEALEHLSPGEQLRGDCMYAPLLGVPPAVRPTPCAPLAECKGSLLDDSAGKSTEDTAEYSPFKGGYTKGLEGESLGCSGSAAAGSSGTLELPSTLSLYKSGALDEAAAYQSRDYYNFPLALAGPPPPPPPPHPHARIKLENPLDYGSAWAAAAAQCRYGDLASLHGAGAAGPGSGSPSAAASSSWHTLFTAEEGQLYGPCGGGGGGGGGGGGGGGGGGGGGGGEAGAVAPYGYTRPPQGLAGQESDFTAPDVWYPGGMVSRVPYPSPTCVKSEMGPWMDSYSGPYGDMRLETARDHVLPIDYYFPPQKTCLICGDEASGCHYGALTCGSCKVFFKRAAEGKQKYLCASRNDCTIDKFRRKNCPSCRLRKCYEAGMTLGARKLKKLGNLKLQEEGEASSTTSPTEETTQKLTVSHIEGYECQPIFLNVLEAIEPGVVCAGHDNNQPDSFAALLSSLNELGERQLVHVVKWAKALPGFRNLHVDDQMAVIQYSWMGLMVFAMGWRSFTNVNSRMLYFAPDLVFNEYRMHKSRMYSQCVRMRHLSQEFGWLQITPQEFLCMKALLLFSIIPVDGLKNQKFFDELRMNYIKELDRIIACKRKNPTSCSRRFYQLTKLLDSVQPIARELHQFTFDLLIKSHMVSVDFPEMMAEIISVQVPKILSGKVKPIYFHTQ

[2] = Adverse events in the Proxalutamide HS study; format: in vivo, human; details: 200 mg q.d. for 7 days; 2 subjects
Description: as §1, §2

[3] = men and women; cited from earlier work
[4] = system: hidradenitis suppurativa (HS); details: 24 female patients; ethinyloestradiol 50 μg + cyproterone acetate 50 mg vs ethinyloestradiol 50 μg + norgestrel 500 μg; positive benefits in both groups; cited from earlier work

Structure (SMILES)	HS Hurley Stage diagnosed by a dermatologist on day 7 ([1]; 200 mg q.d. monotherapy for 7 days, 2 subjects (1 male, 1 female), axilla, baseline Hurley Stage 3, placebo subjects stayed at Stage 3)	Severity of HS compared to the placebo ([1]; within 7 days, 200 mg q.d.)	Effect on AR expression and activity (androgen receptor (AR))	Adverse events reported by the subjects [2]	Safety in Phase II studies [3]	Benefit in HS versus ethinyloestradiol plus norgestrel [4]
CC1(C)C(=O)N(c2ccc(C#N)c(C(F)(F)F)c2F)C(=S)N1c1ccc(CCCc2ncco2)nc1 [Proxalutamide, proxalutamide]	1	reduced the severity of HS	lowers AR expression and activity	No adverse events; also recorded: without any adverse events	safe in both men and women	
CC(=O)O[C@]1(C(C)=O)CC[C@H]2[C@@H]3C=C(Cl)C4=CC(=O)[C@@H]5C[C@@H]5[C@]4(C)[C@H]3CC[C@@]21C [cyproterone acetate]						no statistically significant advantage
